Literature values, collected in patent US4127535A, “Novel dipeptides, intermediates therefor, and compositions and methods employing said dipeptides” (priority 1977, dated 1978).

Experiments:
[1] = tested on: partially purified brain opiate receptor sites; conditions: literature, Bradbury et al.
[2] = literature
[3] = injected directly into the brain of the rat; Belluzzi et al.

## H-Tyr-Gly-Gly-Phe-Met-OH [methionine enkephalin]
[1]
  binding to partially purified brain opiate receptor sites: binds stereo-specifically
[2]
  activity in bioassays for opiate activity: very active
[3]
  analgesic activity: weak analgesic agent of short duration
